The values below come from patent US20250171463A1 (BIOGEN MA INC., priority 2022, published 2025).

Where only a bound is given, the exact number is not on record here.

T1 sequence (Q15125 whole entry): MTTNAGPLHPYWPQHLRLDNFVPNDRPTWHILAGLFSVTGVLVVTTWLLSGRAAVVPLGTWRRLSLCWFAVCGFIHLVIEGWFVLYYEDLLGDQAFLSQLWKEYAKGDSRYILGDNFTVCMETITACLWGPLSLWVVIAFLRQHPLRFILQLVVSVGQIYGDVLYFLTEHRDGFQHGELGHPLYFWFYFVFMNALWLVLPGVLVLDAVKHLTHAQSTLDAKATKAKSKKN

The assay concerns the target T1, EBP (Homo sapiens, UniProt Q15125).
T1 construct: HEK293T cells were utilized as the source of EBP enzyme; endogenous in cells; host or cells: HEK293T
As to the kind of experiment: EBP Functional Assay (EBP immunoaffinity LC-MS assay). It counts as biochemical. Conditions: EBP enzyme from HEK293T cells; 30 min with inhibitor, then zymosterol-d5, 37° C., 4 h; percent conversion to dehydrolathosterol-d5 by LC-APCI MRM MS. The gist of the method: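 HEK293T cells served as EBP source; enzyme preincubated 30 min with inhibitor dilutions, then zymosterol-d5 substrate added and incubated 4 h at 37° C. Sterols extracted and quantified by LC-APCI MRM MS; percent conversion to […] fit to 4-parameter logistic for IC50. Tasin-1 reference inhibitor.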
The compound `O=S(=O)(c1ccc(C2CC2)nc1C(F)(F)F)N1CC2(CN(CC3CCOCC3)C2)C1` [Example 108, 2-((6-cyclopropyl-2-(trifluoromethyl)pyridin-3-yl)sulfonyl)-6-((tetrahydro-2H-pyran-4-yl)methyl)-2,6-diazaspiro[3.3]heptane] showed a half-maximal inhibitory concentration (IC50) of under 100 nM. Next, `O=S(=O)(c1ccc(C(F)(F)F)nc1C(F)(F)F)N1CC2(CN(C3CCOCC3)C2)C1` [Example 109, 2-((2,6-bis(trifluoromethyl)pyridin-3-yl)sulfonyl)-6-(tetrahydro-2H-pyran-4-yl)-2,6-diazaspiro[3.3]heptane]: 250 to 4000 nM; `O=S(=O)(c1ccc(C(F)(F)F)nc1C(F)(F)F)N1CC2(CN(C3CC4(COC4)C3)C2)C1` [Example 110]: 250 to 4000 nM. With `O=S(=O)(c1ccc(C(F)(F)F)nc1C(F)(F)F)N1CC2(CN(CC3CCOCC3)C2)C1` [Example 111], the IC50 is under 100 nM. In turn, `O=S(=O)(c1ccc(C(F)(F)F)nc1C(F)(F)F)N1CC2(CN(CC3COC3)C2)C1` [Example 112] displayed an IC50 of 250 to 4000 nM. In the case of `Cc1nc(C(F)(F)F)ccc1S(=O)(=O)N1CC2(CN(CC3CC4(COC4)C3)C2)C1` [Example 113] it was 100 to 250 nM; in that of `Cc1nc(C(C)(F)F)ccc1S(=O)(=O)N1CC2(CN(CC3CC4(COC4)C3)C2)C1` [Example 114], under 100 nM; in that of `Cn1nc(C(F)(F)F)cc1S(=O)(=O)N1CC2(CN(CC3CC4(COC4)C3)C2)C1` [Example 115], under 100 nM. Next, `O=S(=O)(c1ccc(C(F)F)nc1C1CC1)N1CC2(CN(C3CCOCC3)C2)C1` [Example 116, 2-((2-cyclopropyl-6-(difluoromethyl)pyridin-3-yl)sulfonyl)-6-(tetrahydro-2H-pyran-4-yl)-2,6-diazaspiro[3.3]heptane]: under 100 nM; `O=S(=O)(c1ccc(C(F)F)nc1C1CC1)N1CC2(CN(C3CC4(COC4)C3)C2)C1` [Example 119, 2-((2-cyclopropyl-6-(difluoromethyl)pyridin-3-yl)sulfonyl)-6-(2-oxaspiro[3.3]heptan-6-yl)-2,6-diazaspiro[3.3]heptane]: 100 to 250 nM. In the case of `O=S(=O)(c1cc(C(F)F)nn1C1CC1)N1CC2(CN(C3CCOCC3)C2)C1` [Example 120, 2-((1-cyclopropyl-3-(difluoromethyl)-1H-pyrazol-5-yl)sulfonyl)-6-(tetrahydro-2H-pyran-4-yl)-2,6-diazaspiro[3.3]heptane] it was 100 to 250 nM; in that of `O=S(=O)(c1cnc(C(F)(F)F)cc1C1CC1)N1CC2(CN(C3CC4(COC4)C3)C2)C1` [Example 121, 2-((4-cyclopropyl-6-(trifluoromethyl)pyridin-3-yl)sulfonyl)-6-(2-oxaspiro[3.3]heptan-6-yl)-2,6-diazaspiro[3.3]heptane], 250 to 4000 nM; in that of `O=S(=O)(c1cnc(C(F)(F)F)cc1C1CC1)N1CC2(CN(CC3CCOCC3)C2)C1` [Example 122, 2-((4-cyclopropyl-6-(trifluoromethyl)pyridin-3-yl)sulfonyl)-6-((tetrahydro-2H-pyran-4-yl)methyl)-2,6-diazaspiro[3.3]heptane], under 100 nM. The compound `CCc1cc(C(F)(F)F)ncc1S(=O)(=O)N1CC2(CN(C3CC4(COC4)C3)C2)C1` [Example 125, 2-((4-ethyl-6-(trifluoromethyl)pyridin-3-yl)sulfonyl)-6-(2-oxaspiro[3.3]heptan-6-yl)-2,6-diazaspiro[3.3]heptane] yielded a half-maximal inhibitory concentration (IC50) of 250 to 4000 nM. Take `CCc1cc(C(F)(F)F)ncc1S(=O)(=O)N1CC2(CN(CC3CCOCC3)C2)C1` [Example 126, 2-((4-ethyl-6-(trifluoromethyl)pyridin-3-yl)sulfonyl)-6-((tetrahydro-2H-pyran-4-yl)methyl)-2,6-diazaspiro[3.3]heptane]: the IC50 was in the range of 250 to 4000 nM.

Compound `Cc1nc(C(F)(F)F)ccc1S(=O)(=O)N1CC2(CN(CC3(C)CCOCC3)C2)C1` [Example 129, 2-((2-methyl-6-(trifluoromethyl)pyridin-3-yl)sulfonyl)-6-((4-methyltetrahydro-2H-pyran-4-yl)methyl)-2,6-diazaspiro[3.3]heptane] displayed an IC50 of under 100 nM. On to `Cc1nc(C(F)(F)F)ccc1S(=O)(=O)N1CC2(CN(C(C)C3(C)CCOCC3)C2)C1` (centres unmarked) [Example 131], for which the IC50 was 100 to 250 nM.

Compound `Cc1nc(C(F)(F)F)ccc1S(=O)(=O)N1CC2(CN(C(C)C3(C)COC3)C2)C1` (centres unmarked) [Example 132] registered an IC50 of 100 to 250 nM.

As for `Cc1nc(C(F)(F)F)ccc1S(=O)(=O)N1CC2(CN(CC3CCOC3)C2)C1` (centres unmarked) [Example 133], the half-inhibitory concentration (IC50) was in the range of 250 to 4000 nM. Next, `Cc1nc(C(F)(F)F)ccc1S(=O)(=O)N1CC2(CN(CC3(C)CCCO3)C2)C1` (centres unmarked) [Example 134]: 100 to 250 nM. Consider `Cc1nc(C(F)(F)F)ccc1S(=O)(=O)N1CC2(CN(CC3CCCOC3)C2)C1` (centres unmarked) [Example 136], for which the IC50 lay within 100 to 250 nM. Next, `Cc1nc(C(F)(F)F)ccc1S(=O)(=O)N1CC2(CN(C(C)C3CCCOC3)C2)C1` (centres unmarked) [Example 137]: under 100 nM. In turn, `Cc1nc(C(F)(F)F)ccc1S(=O)(=O)N1CC2(CN(CC3CCCO3)C2)C1` (centres unmarked) [Example 139] registered a half-maximal inhibitory concentration (IC50) of 250 to 4000 nM. The compound `Cc1nc(C(F)(F)F)ccc1S(=O)(=O)N1CC2(CN(C3CCOC3)C2)C1` (centres unmarked) [Example 140] displayed a half-inhibitory concentration (IC50) of 250 to 4000 nM. In the case of `Cc1nc(C(F)(F)F)ccc1S(=O)(=O)N1CC2(CN(CC3(C)COC3)C2)C1` [Example 141] it was under 100 nM; in that of `Cc1nc(C(F)(F)F)ccc1S(=O)(=O)N1CC2(CN(C3CCOCC3(C)C)C2)C1` (centres unmarked) [Example 142], under 100 nM.

In the case of `Cc1nc(C(F)(F)F)ccc1S(=O)(=O)N1CC2(CN(C3CCOCC3C)C2)C1` (centres unmarked) [Example 145], the IC50 is under 100 nM. Turning to `Cc1nc(C(F)(F)F)ccc1S(=O)(=O)N1CC2(CN(C3CCC(F)(F)CC3)C2)C1` [Example 150], the IC50 was under 100 nM.

In turn, `Cc1nc(C(F)(F)F)ccc1S(=O)(=O)N1CC2(CN(C3CCCOC3)C2)C1` (centres unmarked) [Example 151] yielded an IC50 of 250 to 4000 nM. Consider `Cc1nc(C(F)(F)F)ccc1S(=O)(=O)N1CC2(CN(CC3CCOCC3)C2)C1` [Example 152], for which the IC50 was under 100 nM. With `Cc1nc(C(F)(F)F)ccc1S(=O)(=O)N1CC2(CN(CC3COC3)C2)C1` [Example 154], the half-maximal inhibitory concentration (IC50) lay within 100 to 250 nM. Next, `O=S(=O)(c1cccnc1C(F)(F)F)N1CC2(CN(C3CCOCC3)C2)C1` [Example 162, 2-(tetrahydro-2H-pyran-4-yl)-6-((2-(trifluoromethyl)pyridin-3-yl)sulfonyl)-2,6-diazaspiro[3.3]heptane]: 250 to 4000 nM; `Cc1nc(C2CC2(F)F)ccc1S(=O)(=O)N1CC2(CN(C3CCOCC3)C2)C1` (centres unmarked) [Example 163, 2-((6-(2,2-difluorocyclopropyl)-2-methylpyridin-3-yl)sulfonyl)-6-(tetrahydro-2H-pyran-4-yl)-2,6-diazaspiro[3.3]heptane]: under 100 nM; `Cc1ncccc1S(=O)(=O)N1CC2(CN(C3CCOCC3)C2)C1` [Example 164, 2-((2-methylpyridin-3-yl)sulfonyl)-6-(tetrahydro-2H-pyran-4-yl)-2,6-diazaspiro[3.3]heptane]: 250 to 4000 nM.

The compound `O=S(=O)(c1cnc(Cl)c(C(F)(F)F)c1)N1CC2(CN(C3CCOCC3)C2)C1` [Example 165, 2-((6-chloro-5-(trifluoromethyl)pyridin-3-yl)sulfonyl)-6-(tetrahydro-2H-pyran-4-yl)-2,6-diazaspiro[3.3]heptane] yielded an IC50 of 250 to 4000 nM. Regarding `Cn1nc(C(C)(F)F)cc1S(=O)(=O)N1CC2(CN(C3CCOCC3)C2)C1` [Example 166, 2-((3-(1,1-difluoroethyl)-1-methyl-1H-pyrazol-5-yl)sulfonyl)-6-(tetrahydro-2H-pyran-4-yl)-2,6-diazaspiro[3.3]heptane], the IC50 lay within 100 to 250 nM. `COc1cc(C)c(S(=O)(=O)N2CC3(CN(C4CCOCC4)C3)C2)cn1` [Example 168, 2-((6-methoxy-4-methylpyridin-3-yl)sulfonyl)-6-(tetrahydro-2H-pyran-4-yl)-2,6-diazaspiro[3.3]heptane] had an IC50 of 250 to 4000 nM. In the case of `Cn1nc2c(c1S(=O)(=O)N1CC3(CN(C4CCOCC4)C3)C1)CCC2` [Example 169, 2-methyl-3-((6-(tetrahydro-2H-pyran-4-yl)-2,6-diazaspiro[3.3]heptan-2-yl)sulfonyl)-2,4,5,6-tetrahydrocyclopenta[c]pyrazole] it was 250 to 4000 nM; in that of `CCN1CC2(C1)CN(S(=O)(=O)c1ccc(C(F)(F)F)nc1C)C2` [Example 170], 250 to 4000 nM. The compound `Cc1nc(C(F)(F)F)ccc1S(=O)(=O)N1CC2(CN(CC3CC3C#N)C2)C1` (centres unmarked) [Example 171] gave an IC50 of 250 to 4000 nM. Next, `COCCOCCCN1CC2(C1)CN(S(=O)(=O)c1ccc(C(F)(F)F)nc1C)C2` [Example 172]: 250 to 4000 nM; `Cc1nc(C(F)(F)F)ccc1S(=O)(=O)N1CC2(CN(CCCOC3CCCC3)C2)C1` [Example 176]: under 100 nM. Next, `COC(=O)C(C)(C)CCN1CC2(C1)CN(S(=O)(=O)c1ccc(C(F)(F)F)nc1C)C2` [Example 177]: 250 to 4000 nM. `COC(CN1CC2(C1)CN(S(=O)(=O)c1ccc(C(F)(F)F)nc1C)C2)C1CC1` (centres unmarked) [Example 178] yielded an IC50 of 250 to 4000 nM.

Regarding `COCCCCCN1CC2(C1)CN(S(=O)(=O)c1ccc(C(F)(F)F)nc1C)C2` [Example 179], the IC50 is 100 to 250 nM. Turning to `COC(C)CCCN1CC2(C1)CN(S(=O)(=O)c1ccc(C(F)(F)F)nc1C)C2` (centres unmarked) [Example 180], the concentration for half-maximal inhibition (IC50) lay within 100 to 250 nM. In the case of `COCCC1(CN2CC3(C2)CN(S(=O)(=O)c2ccc(C(F)(F)F)nc2C)C3)CCC1` [Example 181] it was 100 to 250 nM; in that of `CCSCCCN1CC2(C1)CN(S(=O)(=O)c1ccc(C(F)(F)F)nc1C)C2` [Example 183], under 100 nM; in that of `Cc1nc(C(F)(F)F)ccc1S(=O)(=O)N1CC2(CN(CCC3CC3)C2)C1` [Example 184], under 100 nM. In the case of `Cc1nc(C(F)(F)F)ccc1S(=O)(=O)N1CC2(CN(CCOC(C)(C)C)C2)C1` [Example 185] it was under 100 nM.
